The values below come from ChEMBL document CHEMBL1130711, “Identification of novel nucleotide phosphonate analogs with potent anti-HCMV activity” (Bioorg Med Chem Lett, 1998).

Test [1] relates to WI-38. As to the kind of experiment: Compound was tested for antiviral activity against WI-38 cell line using a plaque reduction assay; 10-50. Type of test: functional. To be noted: Homo sapiens.
For test [2], the system named is MRC5. The test is described as follows: (§1) Compound was tested for cytotoxicity by measuring inhibition of MRC-5 cell proliferation. Type of test: functional, cell-based. To be noted: Homo sapiens.
For test [3], the system named is WI-38. As to the kind of experiment: Compound was tested for antiviral activity against WI-38 cell line using a plaque reduction assay; 0.5-1. Type of test: functional, cell-based. To be noted: Homo sapiens. In general terms: In a plaque reduction assay, fewer plaques than in the control indicate reduced infectivity or spread.
Test [4] concerns MRC5. Described as §1. It is filed as functional. The settings on record: Homo sapiens.
The test system of test [5] is WI-38. As to the kind of experiment: (§2) Compound was tested for antiviral activity against WI-38 cell line using a plaque reduction assay. Type of test: functional. The settings on record: Homo sapiens.
The test system of test [6] is WI-38. Described as §2. It is filed as functional, cell-based. The settings on record: Homo sapiens.
In test [7] the test system is WI-38. As to the kind of experiment: Compound was tested for antiviral activity against WI-38 cell line using a plaque reduction assay; 0.1-1. It is filed as functional, cell-based. The settings on record: Homo sapiens.
Test [8] has as its system WI-38. As to the kind of experiment: Compound was tested for antiviral activity against WI-38 cell line using a plaque reduction assay; 10-100. Type of test: functional. The settings on record: Homo sapiens.
Test [9] relates to Human betaherpesvirus 5. The test is described as follows: Compound was tested for cytotoxicity against human cytomegalovirus (HCMV). It is filed as functional.
In test [10] the test system is Human betaherpesvirus 5. The test is described as follows: Compound was tested for antiviral activity against human cytomegalovirus (HCMV). Type of test: functional, organism-based.

The structures appear in SMILES notation. Converted amounts (≈) assume the structure as drawn.

The term CC50 denotes the concentration at which the toxic effect on the cells reaches its halfway point. The low end stands for harm at low concentration, the high end for better tolerance by the cells. By IC50 is commonly meant the midpoint of a concentration-inhibition curve. A lower IC50 goes with higher potency. As for `Nc1nc(O)c2ncn(C[C@@H]3CC[C@H](P(=O)(O)O)O3)c2n1`, the CC50 in the test on WI-38 [1] was 10 µg/mL (≈ 31.7 µM); in the test on MRC5 [4] it was greater than 10 µg/mL. Further, the IC50 in the test with MRC5 [2] was 1.6 µg/mL (≈ 5.08 µM); with WI-38 [3], 0.5 µg/mL (≈ 1.59 µM).
In the test with WI-38 [5], `Nc1ncc2ncn(C[C@@H]3CC[C@H](P(=O)(O)O)O3)c2n1` displayed a CC50 greater than 100 µg/mL. The compound further showed an IC50 with WI-38 [6] of 100 µg/mL (≈ 334 µM).
As for `Nc1nc(O)c2ncn(C[C@H]3CC[C@@H](P(=O)(O)O)O3)c2n1`, in the test on WI-38 [5], the CC50 was 100 µg/mL (≈ 317 µM). In the test with WI-38 [6], this compound came in with an IC50 greater than 10 µg/mL.
On to `Nc1nc(N)c2ncn(C[C@@H]3CC[C@H](P(=O)(O)O)O3)c2n1`, for which, in the test on WI-38 [5], the CC50 was greater than 100 µg/mL. Moreover, in the test with WI-38 [6], the IC50 is greater than 50 µg/mL.
The like results for `Nc1nc(O)c2ncn(C[C@H]3CC[C@H](P(=O)(O)O)O3)c2n1` were, in that order, greater than 100 µg/mL and greater than 10 µg/mL.
`Nc1nc(N)c2ncn(C[C@H]3CC[C@H](P(=O)(O)O)O3)c2n1` returned a CC50 in the test on WI-38 [5] greater than 100 µg/mL. Moreover, in the test on WI-38 [6], the IC50 is greater than 50 µg/mL.
The compound `Nc1nc(N)c2ncn(C[C@@H]3CC[C@@H](P(=O)(O)O)O3)c2n1` registered a CC50 in the test on WI-38 [5] greater than 100 µg/mL. Moreover, in the test on WI-38 [6], the IC50 is 50 µg/mL (≈ 159 µM).
In the case of `Nc1nc(O)c2ncn(C[C@@H]3CC[C@@H](P(=O)(O)O)O3)c2n1`, the IC50 in the test on WI-38 [7] worked out at 0.1 µg/mL (≈ 0.317 µM); in the test with MRC5 [2], 0.11 µg/mL (≈ 0.349 µM). Moreover, the CC50 amounted to 10 µg/mL (≈ 31.7 µM) in the test with WI-38 [8] and 28 µg/mL (≈ 88.8 µM) in the test on MRC5 [4].
On to `Nc1nc(N)c2ncn(C[C@H]3CC[C@@H](P(=O)(O)O)O3)c2n1`, for which, in the test on WI-38 [5], the CC50 was greater than 100 µg/mL. Further, the IC50 with WI-38 [6] was greater than 50 µg/mL.
In turn, `Nc1nc(O)c2ncn(C[C@@H]3CO[C@H](P(=O)(O)O)O3)c2n1` returned a CC50 in the test on Human betaherpesvirus 5 [9] greater than 100 µg/mL. In addition, in the test with Human betaherpesvirus 5 [10], half-maximal inhibition (IC50) required 45 µg/mL (≈ 142 µM).
With `Nc1ccn(C[C@@H](CO)OCP(=O)(O)O)c(=O)n1.O.O` [CIDOFOVIR], the CC50 in the test with WI-38 [1] stood at 10 µg/mL; in the test on MRC5 [4], 19 µg/mL. For the same compound, the IC50 in the test on WI-38 [7] stood at 0.1 µg/mL; with MRC5 [2], 0.04 µg/mL.
As to `Nc1nc2c(ncn2COC(CO)CO)c(=O)[nH]1` [GANCICLOVIR], the midpoint of inhibition with MRC5 [2], the IC50, lay at 2.1 µg/mL (≈ 8.23 µM). In the test with MRC5 [4], the CC50 is greater than 100 µg/mL.
